Laboratory results from US10800816B2 (Baxalta GmbH, priority 2012, dated 2020).
Where two headings read alike, the source gives them in different places. One block for each molecule: values may come before it. *1 amine or outer side, *2 acyl side, *3 side chain or, on linkers, in order; H or OH if unused. Where a SMILES comes first, the peptide text is derived from it. Side-chain parts run from the residue outwards. [ ]: non-standard residue; d: D form. The star is where a group is joined. X1 = CCCCCCCCCCCCCC(=O)NCCCOCCOCCOCCCN*; Suc = O=C(CCC(=O)[*:2])[*:1]; Tle = CC(C)(C)[C@H](N)C(=O)O; Hexanoyl = CCCCCC(=O)*; Aib = CC(C)(N)C(=O)O; Acm = CC(=O)NC*

Columns and labels:
[1] = test system: Tissue Factor Pathway Inhibitor (TFPI); experiment: IC50 ELISA | Mean IC50 [nM]
Description: Table printed on a drawing sheet, FIGURE 78V
(§1) Head of the field: IC50 ELISA | Mean IC50 [nM]

[2] = test system: Tissue Factor Pathway Inhibitor (TFPI); experiment: IC50 ELISA | IC50 [nM]
Description: Table printed on a drawing sheet, FIGURE 78G
(§2) Head of the field: IC50 ELISA | IC50 [nM]

FIX knock-out mice = experiment: Tail-tip bleed model in FIX knock-out mice; assay type: in vivo, mouse
Description: JBT2329 also was tested in a FIX knock-out tail-tip bleed mouse model, which is a clinically-relevant model for hemophilia B human patients. The methodology was substantially similar to that described above with respect to the FVIII knock-out model. Instead of ADVATE, a recombinant FIX (rFIX) served as a reference. Median total blood loss in buffer-treated animals was 935 mg. Median total blood loss in animals treated with a murine anti-TFPI antibody (maTFPI) was 774 mg. Median total blood loss was reduced further when the animals received combined treatment of maTFPI and rFIX.

[3] = test system: Tissue Factor Pathway Inhibitor (TFPI); experiment: IC50 ELISA | Mean IC50 [nM]; remark: listed apart in the source
FIGURE 78K = experiment: FIGURE 78K
Description: Table printed on a drawing sheet, FIGURE 78K

FIGURE 78L = experiment: FIGURE 78L
Description: Table printed on a drawing sheet, FIGURE 78L

TFPI [4] = experiment: Progress Curves of Inhibition of FXa | % Inhibit (2.5µM)
Description: Head of the field: Progress Curves of Inhibition of FXa | % Inhibit (2.5µM)
“*” denotes negative controls.

[5] = test system: Tissue Factor Pathway Inhibitor (TFPI); experiment: IC50 ELISA | Mean IC50 [nM]; remark: listed apart in the source
TFPI [6] = experiment: IC50 ELISA | Mean IC50 [nM]
TFPI [7] = experiment: IC50 ELISA | Mean IC50 [nM]; remark: listed apart in the source
TFPI [8] = experiment: IC50 ELISA | Mean IC50 [nM]; remark: listed apart in the source
Description: Table printed on a drawing sheet, FIGURE 78Z
as §1
First copying reader's note: Continued table: the first body row (45.67) belongs to a compound on the preceding sheet, the last row probably continues on the next sheet, and cells with several values list single replicates.

TFPI [9] = experiment: Progress Curves of Inhibition of FXa | % Inhibit (2.5µM); remark: listed apart in the source
[10] = test system: Tissue Factor Pathway Inhibitor (TFPI); experiment: IC50 ELISA | IC50 [nM]; remark: listed apart in the source
Description: Table printed on a drawing sheet, FIGURE 78R
as §2

TFPI [11] = experiment: Extrinsic Tenase Inhibition by TFPI | % Inhibit (2.5µM)
TFPI [12] = experiment: Progress Curves of Inhibition of FXa | % Inhibit (2.5µM); remark: listed apart in the source

Molecule: Ac-FQSKpNVH-Tle-D-hcy-YF-Hcy-RL-Aib-AKL-NH2 [JBT00002497]
IC50 [1]: 7.16 nM

IC50 [2]: > 5000 nM
Molecule: Ac-FQSKpN-Phg-H-Phg-DGYFERL-Aib-AKL-NH2 [JBT00002298]

Molecule: rFIX: a recombinant FIX
Median total blood loss (FIX knock-out mice; 10 IU/kg rFIX alone): 888 mg
Median total blood loss (FIX knock-out mice; 25 IU/kg rFIX alone): 774 mg

IC50 [3]: 5.26 nM
Molecule: Ac-FQSKpNVH-Tle-DcY-Bta--Hcy-RL-Aib-AKL-NH2 [JBT00002500]

24 h Human Plasma Stability | Mean Remaining [%] (FIGURE 78M): 59.30%
24 h Mouse Plasma Stability | Mean Remaining [%] (FIGURE 78M): 56.70%
Molecule: Ac-FQSKpNVHVDGYFERL-Aib-AKLC(ME-400MA)-NH2 [JBT00002329]
24 h Human Plasma Stability | Mean Remaining [%] (FIGURE 78K): 69.50%
24 h Mouse Plasma Stability | Mean Remaining [%] (FIGURE 78K): 69.50%
24 h Human Plasma Stability | Mean Remaining [%] (FIGURE 78L): 62.90%
24 h Mouse Plasma Stability | Mean Remaining [%] (FIGURE 78L): 81.80%

Molecule: Ac- KKVGSVTRWSMYGPIFIKFTWTLEQPVGWDH KK-NH2 (SEQ ID NO: 3056) (Ac-KKVGSVTRWSMYGPIFIKFTWTLEQPVGWDHKK-NH2) [JBT0176*]
Progress Curves of Inhibition of FXa | % Inhibit ([…]) (TFPI [4]): 0%

IC50 [5]: 9.3 nM
Molecule: Ac-FQSKpNVHVDGYFERL-Aib-AKLC(ME-120MA)-NH2 [JBT00002326]

IC50 (TFPI [6]): 93.4 nM
Molecule: Ac-FQSK-Nmg-NVFVFGYFERLRAKL-NH2 [JBT00000500]

Molecule: CCCCCCCCCCCCCC(=O)NCCCOCCOCCOCCCNC(=O)CCC(=O)NCCCC[C@H](NC(=O)[C@H](CC(C)C)NC(=O)[C@H](CCCCN)NC(=O)[C@H](C)NC(=O)C(C)(C)NC(=O)[C@H](CC(C)C)NC(=O)[C@H](CCCNC(=N)N)NC(=O)[C@H](CCC(=O)O)NC(=O)[C@H](Cc1ccccc1)NC(=O)[C@H](Cc1ccc(O)cc1)NC(=O)[C@@H](C)NC(=O)[C@H](CC(=O)O)NC(=O)[C@@H](NC(=O)[C@H](Cc1c[nH]cn1)NC(=O)[C@@H](NC(=O)[C@H](CSCNC(C)=O)NC(=O)[C@H]1CCCN1C(=O)[C@H](CCCCN)NC(=O)[C@H](CO)NC(=O)[C@H](CCC(N)=O)NC(=O)[C@H](Cc1ccccc1)NC(=O)CCCCC)C(C)C)C(C)(C)C)C(N)=O [JBT00002531, Hex-FQSKp-Cys(Acm)-VH-Tle-DaYFERL-Aib-AKLK(Ttds- Myr)--NH2] (Hexanoyl-FQSK[dP]C(Acm)VH[Tle]D[dA]YFERL[Aib]AKLK([Suc-X1])-NH2)
IC50 (TFPI [7]): 27.2 nM
IC50 (TFPI [8]): 27 nM

IC50 (TFPI [7]): 1.03 nM
Molecule: (Ac-FQSKpNVHVDGYFERL-Aib-AKLC-NH2)2-M2PEG2000 [JBT00002523]

IC50 [3]: 6.31 nM
Molecule: Ac-FQSKp-C(Acm)-VH-Tle-D[cY-Bta--Hcy-]RL-Aib-AKL- NH2 [JBT00002501]

IC50 [2]: > 5000 nM
Molecule: Ac-FQSKpN-Chg-H-Chg-DGYFERL-Aib-AKL-NH2 [JBT00002295]

Molecule: Ac-KWFCGMRDMKGTMSCVWVKFRYDTS- [JBT0324]
Progress Curves of Inhibition of FXa | % Inhibit ([…]) (TFPI [9]): 0%

Molecule: Ac-FQSKpNVH-Tle-D-hcy-YFCRL-Aib-AKL-NH2 [JBT00002498]
IC50 [1]: 7.59 nM

IC50 [10]: > 500 nM
Molecule: Palm-FQSKpNVH-Tle-DaYFERL-Aib-AKL-NH2 [JBT00002440]

Extrinsic Tenase Inhibition by TFPI | % Inhibit ([…]) (TFPI [11]): 0%
Molecule: Ac-SGGRKHKHFLRSNGKPSRALSS-NH2 (SEQ [JBT0424]
Progress Curves of Inhibition of FXa | % Inhibit ([…]) (TFPI [12]): 1%
